Data on nine compounds can be found in patent US12285392B2, “Method for modulating metabolism” (Brightseed, Inc., priority 2018, dated 2025).

Data set [1] concerns the target T1, HNF4α (Homo sapiens, UniProt P41235).
T1 construct: endogenous in cells; host or cells: T6PNE cells
T1 sequence (P41235 1-474): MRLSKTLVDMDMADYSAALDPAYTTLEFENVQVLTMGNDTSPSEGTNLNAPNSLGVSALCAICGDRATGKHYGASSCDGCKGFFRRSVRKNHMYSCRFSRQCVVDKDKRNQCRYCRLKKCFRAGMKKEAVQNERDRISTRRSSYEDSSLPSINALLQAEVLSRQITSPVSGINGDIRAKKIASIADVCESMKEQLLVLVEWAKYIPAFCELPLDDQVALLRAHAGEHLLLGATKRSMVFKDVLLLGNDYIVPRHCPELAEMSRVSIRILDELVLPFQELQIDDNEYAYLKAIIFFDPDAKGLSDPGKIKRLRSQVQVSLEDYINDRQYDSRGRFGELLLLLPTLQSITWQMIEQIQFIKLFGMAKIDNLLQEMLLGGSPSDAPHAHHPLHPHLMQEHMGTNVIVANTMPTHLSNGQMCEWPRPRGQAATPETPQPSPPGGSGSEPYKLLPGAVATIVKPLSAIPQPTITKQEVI
Put plainly: Insulin promoter activity assay in T6PNE cells (HNF4α activity). The settings on record: for HNF4α modulation in screening: screening in the HNF4α assay. The format is cell-based. On the procedure:
Insulin Promoter Activity. T6PNE cells (Kiselyuk, et al. (2012) Chem Biol. 19(7):806-818; Kiselyuk, et al. (2010) J. Biomol. Screen 15(6):663-70) are seeded at 2000 cells per well in 384-well tissue culture plates in the presence of 1 μM tamoxifen and 0.03 mM palmitate. After a 24-hour incubation, a compound or extract of the invention is added to the cells. Forty-eight hours after compound or extract addition, cells are fixed in 4% paraformaldehyde and stained with DAPI. Blue (DAPI) and green (human insulin promoter driving GFP) channels are imaged.
Inhibition of HNF4α GFP Expression. Using the insulin promoter assay described herein, activity of HNF4α was assessed in the presence of BI-6015 (0, 2.5, 5 μM), a known antagonist of HNF4α (Kiselyuk, et al. (2012) Chem. Biol. 19(7):806-818), in combination with N-trans-caffeoyltyramine (0, 5, 10, 20 μM).
Given the role of HNF4α in maintaining a heal thy metabolism in humans, test compounds were screened for activity as HNF4α agonists (either direct or indirect effects). Using a known insulin promoter-reporter assay, Kiselyuk and colleagues (2010. J. Biomol. Screen 15(6):663-70), screened a library of compounds for activity to promote insulin activation. […] The OTC promoter is known to be responsive to HNF4α in transient transfection assays (Inoue, et al. (2002) J. Biol. Chem. 277:25257-65).

The subject of a further data set is insulin mRNA. Put plainly: Insulin mRNA levels by quantitative PCR. The format is cell-based. Particulars: FIG. 2. How it is done:
(§1) Expression of Insulin and HNF4α. RNA was purified using a RNEASY® chromatographic separation and isolation kits (Qiagen), and converted to cDNA using the gScript™ cDNA SuperMix (Quanta Biosciences). Q-PCR was conducted with cDNA corresponding to 2 μg of RNA using an Opticon Real-Time System (MJ Research) and QPCR SuperMix (BioPioneer). See All mRNA values were normalized to 18S rRNA values and are expressed as fold changes over vehicle-treated control.

The next data set relates to HNF4α mRNA. The data set can be described thus: HNF4α mRNA levels by quantitative PCR. The format is cell-based. Particulars: FIG. 3. How it is done:
as §1

Data set [2] can be described thus: Bioavailability determination in mice. The format is in vivo. The settings on record: mouse, whole blood, 30 mg/kg; male C57BL/6 mice. How it is done: Bioavailability Determinations.
An 8 μL aliquot of blood was used for analysis.

In another data set the test system is T6PNE cells. Put plainly: Lipid clearance in T6PNE cells (steatosis assay). The format is cell-based. Particulars: 10 μM, 0.25 mM palmitate. On the procedure:
T6PNE cells were pretreated for 1 day with 0.06 mM, 0.12 mM or 0.25 mM palmitate at which time 15 μM N-trans-caffeoyltyramine or control (DMSO) was added. Cells were harvested on day 3, 6 and 8 and subjected to staining with Nile Red and Oil Red O. Results are expressed as fold change in Nile Red staining: +palmitate/10% FBS medium (no palmitate)
(§2) Lipid Clearance in HepG2 and T6PNE Cells (Steatosis Assay). The steatosis assay was carried out as described (Kiselyuk, et al. (2012) Chem. Biol. 19(7):806-818) with the exception of the drug concentration, which was 20 μM for N-trans-caffeoyltyramine with 0.25 mM palmitate in HepG2 cell lines, and 10 μM of either N-trans-caffeoyltyramine, N-trans-caffeoyltyramine, or pcoumaroyltyramine, with 0.25 mM palmitate in T6PNE cell lines. Steatosis was assessed using the Oil Red 0 Method for Fats kits (Poly Scientific; Warrington, PA), per manufacturer's guidelines. Briefly, frozen tissue slides or fixed cells were incubated in neat propylene glycol for 2 minutes and Oil Red 0 solution for 15 hours for slides or 1 hour for fixed cells, differentiated in 85% propylene glycol solution for 1 minute, washed twice with distilled water and stained in Hematoxylin of 10 seconds. Slides were mounted with glycerin jelly mounting medium.

Another data set has as its system HepG2 cells. The data set can be described thus: Lipid clearance in HepG2 cells (steatosis assay, Oil Red O). The format is cell-based. The settings on record: HepG2 liver cells, 20 μM. On the procedure:
as §2

The test system of the next data set is estrogenic activity. The data set can be described thus: Counter-screen for estrogenic activity (E47MER luciferase reporter in HeLa cells). The format is cell-based, human. The settings on record: FIG. 5. How it is done:
Counter-Screen for Estrogenic Activity. Estrogenic activity was monitored by co-transfection of a reporter plasmid containing a multimerized E-box 5′ of a minimal promoter fused to the Firefly luciferase gene (4RTK-luc) with wild-type E47 or E47MER (Kiselyuk, et al. (2010) J. Biomol. Screen 15(6):663-70). HeLa cells were transfected using polyethylenimine, 0.2 μg 4RTK-Luc plasmid and either 0.3 μg of human E47, E47MER or pMSCVhph vector in 50 μl of serum-free Dulbecco's modification of Eagle medium per well. Transfections included Renilla luciferase (pRL-TK) plasmid as a control for transfection efficacy. Transfection conditions were as described in the PPRE-Luc reporter assay of Kiselyuk, et al. ((2010) J. Biomol. Screen 15(6):663-70). Sixteen hours after transfection, culture media were changed and maintained for 48 hours with tamoxifen and/or compound or vehicle (DMSO). Cells were then lysed and assayed for luciferase activity using the Promega DUAL-LUCIFERASE® reporter assay kit (Promega Corp., Madison, WI), and luminescence was measured using the Veritas™ Microplate Luminometer (Turner Biosystems, Sunnyvale, CA). Data were normalized to Renilla luciferase (pRL-TK) and expressed as fold-change over vehicle alone.
On the technique in general: Counterscreens check selectivity or assay interference.

The nature of a further data set: pH stability assessment. The format is physicochemical. The settings on record: pH 2, 7.4, 8.5 and 10, 37° C., 0.5 and 72 hours. On the procedure:
pH Stability Assessment. Individual stock solutions were prepared in DMSO at concentrations of 10 mg/mL. Four different buffer solutions were prepared to achieve solutions with a pH of 2, 7.4, 8.5 and 10. For each pH assay, 5 μL of stock solution was added to 245 μL of buffered solution to a 2 mL tube, vortexed and incubated in a 37° C. water bath. At each timepoint, 50 μL aliquots were taken, neutralized and analyzed via HPLC analysis using a DAD detector at 280 nm. The fold change of the peak area at 280 nm was analyzed for the initial and final timepoint, 0.5 and 72 hours, respectively.

The target of data set [3] is T1, HNF4α. The settings on record: Kiselyuk et al.; cited from earlier work.
Data set [4] addresses T1, HNF4α. Particulars: cited from earlier work.

Turning to `Cc1ccc([N+](=O)[O-])cc1S(=O)(=O)n1c(C)nc2ccccc21` [BI-6015, reference compound], the “Effect on N-trans-caffeoyltyramine-mediated increases in insulin expression” value on HNF4α [1] (insulin promoter assay, BI-6015 0, 2.5, 5 μM, FIG. 4) is recorded as “inhibited”.

Regarding `O=C(/C=C\c1ccc(O)c(O)c1)NCCc1ccc(O)cc1` [N-cis-caffeoyltyramine], on HNF4α [1], the “HNF4α modulation in screening” value is “able to act as HNF4α modulators”.

For the compound `O=C(/C=C/c1ccc(O)cc1)NCCc1ccc(O)c(O)c1` [N-coumaroyldopamine], in the data set with insulin mRNA, the Insulin gene expression result is “inactive”. Also, in the data set on HNF4α mRNA, the HNF4α gene expression entry was “inactive”.

As to `COc1cc(/C=C/C(=O)NCCc2ccc(O)cc2)ccc1O` [N-trans-feruloyltyramine], the bioavailability in data set [2] was approximately 7%. Moreover, the Fat accumulation entry in the data set on T6PNE cells is “inhibition of fat accumulation”. For the same compound, the Insulin gene expression result in the data set on insulin mRNA is listed as “upregulated”. Also, in the data set with HepG2 cells, the “Clearing of fats (Oil Red O staining)” value is listed as “capable of clearing harmful fats from the liver”. In addition, the Accumulation of fats result with HepG2 cells (0.25 mM palmitate) is “inhibited accumulation of fats”. The Estrogenic activity entry in the data set with estrogenic activity is “did not exhibit estrogenic activity”. The HNF4α gene expression result in the data set with HNF4α mRNA was “upregulated”. Besides, the “HNF4α modulation in screening” value on HNF4α [1] was “able to act as HNF4α modulators”. Besides, the “pH Stability” value in the data set “pH stability assessment” is recorded as “Stable”.

Regarding `COc1cc(/C=C/C(=O)NCC(O)c2ccc(O)cc2)ccc1O` (stereo not shown) [N-transferuloyloctopamine], in the data set on insulin mRNA, the Insulin gene expression result is “inactive”. For the same compound, the HNF4α gene expression result with HNF4α mRNA was “inactive”.

On to `COc1cc(/C=C\C(=O)NCCc2ccc(O)cc2)ccc1O` [cis-feruloyltyramine, reference compound], for which the Insulin gene expression entry in the data set with insulin mRNA is “inactive”. Further, in the data set on HNF4α mRNA, the HNF4α gene expression entry is “inactive”.

On to `CCN(CCCCc1ccccc1)CCc1ccccc1` [compound 1], for which the “Insulin activation in insulin promoter-reporter screen” value on HNF4α [3] is “insulin activator”. For the same compound, at HNF4α [4], the “HNF4α agonistic activity in OTC promoter assay” value was “possess HNF4α agonistic activity”.

For the compound `O=C(/C=C/c1ccc(O)cc1)NCC(O)c1ccc(O)cc1` (stereo not shown) [p-coumaroyloctopamine], in the data set on insulin mRNA, the Insulin gene expression entry is “inactive”. Further, in the data set with HNF4α mRNA, the HNF4α gene expression entry is “inactive”.

`O=C(/C=C/c1ccc(O)cc1)NCCc1ccc(O)cc1` [p-coumaroyltyramine]: in “pH stability assessment”, the “pH Stability” value is recorded as “Acid Stable”.

The term bioavailability denotes the share of a dose that reaches the circulation, judged against a reference dose that is usually intravenous.
